# Measurements taken from patent US9029377B2, “Platelet-activating factor receptor antagonists” (Merck Sharp & Dohme Corp., priority 2009, dated 2015).
# Target: PAFR (Homo sapiens, UniProt P25105)
# Experiment: PAF Binding Assay (PAFR binding)
# PAFR, sequence (P25105 whole entry): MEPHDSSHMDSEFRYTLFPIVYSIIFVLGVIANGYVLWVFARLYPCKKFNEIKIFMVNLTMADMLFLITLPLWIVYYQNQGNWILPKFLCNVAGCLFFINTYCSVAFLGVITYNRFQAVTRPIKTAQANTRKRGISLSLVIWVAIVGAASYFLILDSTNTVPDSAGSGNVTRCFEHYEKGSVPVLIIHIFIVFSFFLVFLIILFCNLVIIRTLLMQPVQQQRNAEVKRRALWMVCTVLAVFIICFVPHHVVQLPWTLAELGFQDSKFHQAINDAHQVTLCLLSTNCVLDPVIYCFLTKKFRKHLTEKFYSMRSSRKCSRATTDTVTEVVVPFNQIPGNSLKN
row,SMILES,IC50 [nM]
1,"CC(C)Oc1ccc(-c2ccc(S(=O)(=O)N[C@H]3CCC[C@@H](n4cnnc4)C3)cc2F)cn1 [Compound 2Ee, 3-fluoro-4-(6-isopropoxypyridin-3-yl)-N-[(1S,3R)-3-(4H-1,2,4-triazol-4-yl)cyclohexyl]benzenesulfonamide]",5.1
2,"O=S(=O)(N[C@H]1CCC[C@@H](n2cnnc2)C1)c1ccc(-c2ccc(OCC(F)(F)F)nc2)c(F)c1 [Compound 2Ef, 3-fluoro-N-[(1S,3R)-3-(4H-1,2,4-triazol-4-yl)cyclohexyl]-4-[6-(2,2,2-trifluoroethoxy)pyridin-3-yl]benzenesulfonamide]",7
3,"Cc1nncn1[C@@H]1CCC[C@H](NS(=O)(=O)c2ccc(-c3ccc(OC(F)(F)F)cc3)c(F)c2)C1 [Compound 2Fa, 2-fluoro-N-[(1S,3R)-3-(3-methyl-4H-1,2,4-triazol-4-yl)cyclohexyl]-4′-(trifluoromethoxy)biphenyl-4-sulfonamide]",0.2
4,"Cc1nncn1[C@@H]1CCC[C@H](NS(=O)(=O)c2ccc(-c3ccc(OCC(F)(F)F)cc3)c(F)c2)C1 [Compound 2Fb, 2-fluoro-N-[(1S,3R)-3-(3-methyl-4H-1,2,4-triazol-4-yl)cyclohexyl]-4′-(2,2,2-trifluoroethoxy)biphenyl-4-sulfonamide]",0.8
5,"Cc1nncn1[C@@H]1CCC[C@H](NS(=O)(=O)c2ccc(-c3ccc(OC(F)F)cc3)c(F)c2)C1 [Compound 2Fc, 4′-(difluoromethoxy)-2-fluoro-N-[(1S,3R)-3-(3-methyl-4H-1,2,4-triazol-4-yl)cyclohexyl]biphenyl-4-sulfonamide]",1.9
6,"Cc1nncn1[C@@H]1CCC[C@H](NS(=O)(=O)c2ccc(-c3ccc(OC(C)C)nc3)c(F)c2)C1 [Compound 2Fe, 3-fluoro-4-(6-isopropoxypyridin-3-yl)-N-[(1S,3R)-3-(3-methyl-4H-1,2,4-triazol-4-yl)cyclohexyl]benzenesulfonamide]",3.6
7,"Cc1nncn1[C@@H]1CCC[C@H](NS(=O)(=O)c2ccc(-c3ccc(OCC(F)(F)F)nc3)c(F)c2)C1 [Compound 2Ff, 3-fluoro-N-[(1S,3R)-3-(3-methyl-4H-1,2,4-triazol-4-yl)cyclohexyl]-4-[6-(2,2,2-trifluoroethoxy)pyridin-3-yl]benzenesulfonamide]",1
8,"Cc1nncn1[C@@H]1CCC[C@H](NS(=O)(=O)c2ccc(-c3cnc(Cl)c(F)c3)c(F)c2)C1 [Compound 2Fg, 4-(6-chloro-5-fluoropyridin-3-yl)-3-fluoro-N-[(1S,3R)-3-(3-methyl-4H-1,2,4-triazol-4-yl)cyclohexyl]benzenesulfonamide]",36
9,"Cc1nncn1[C@@H]1CCC[C@H](NS(=O)(=O)c2ccc(-c3noc(C4CC4)n3)c(F)c2)C1 [Compound 2Fh, 4-(5-cyclopropyl-1,2,4-oxadiazol-3-yl)-3-fluoro-N-[(1S,3R)-3-(3-methyl-4H-1,2,4-triazol-4-yl)cyclohexyl]benzenesulfonamide]",9.9
10,"Cc1nncn1[C@@H]1CCC[C@H](NS(=O)(=O)c2ccc(OCCCCF)c(F)c2)C1 [Compound 2Fi, 3-fluoro-4-(4-fluorobutoxy)-N-[(1S,3R)-3-(3-methyl-4H-1,2,4-triazol-4-yl)cyclohexyl]benzenesulfonamide]",9.7
11,"CCCCOc1ccc(S(=O)(=O)N[C@H]2CCC[C@@H](n3cnnc3C)C2)cc1F [Compound 2Fj, 4-butoxy-3-fluoro-N-[(1S,3R)-3-(3-methyl-4H-1,2,4-triazol-4-yl)cyclohexyl]benzenesulfonamide]",1.9
12,"O=S(=O)(N[C@@H]1C[C@H](n2cnnc2)CC(F)(F)C1)c1ccc(-c2ccc(OC(F)(F)F)cc2)c(F)c1 [Compound 2Ga, N-[(1R,5S)-3,3-difluoro-5-(4H-1,2,4-triazol-4-yl)cyclohexyl]-2-fluoro-4′-(trifluoromethoxy)biphenyl-4-sulfonamide]",10
13,"CC(C)Oc1ccc(-c2ccc(S(=O)(=O)N[C@@H]3C[C@H](n4cnnc4)CC(F)(F)C3)cc2F)cc1 [Compound 2Gd, N-[(1R,5S)-3,3-difluoro-5-(4H-1,2,4-triazol-4-yl)cyclohexyl]-2-fluoro-4′-isopropoxybiphenyl-4-sulfonamide]",7.2
14,"Cc1nncn1[C@H]1C[C@@H](NS(=O)(=O)c2ccc(-c3ccc(OC(F)(F)F)cc3)c(F)c2)CC(F)(F)C1 [Compound 2Ha, N-[(1R,5S)-3,3-difluoro-5-(3-methyl-4H-1,2,4-triazol-4-yl)cyclohexyl]-2-fluoro-4′-(trifluoromethoxy)biphenyl-4-sulfonamide]",1.4
15,"Cc1nncn1[C@H]1C[C@@H](NS(=O)(=O)c2ccc(-c3ccc(OCC(F)(F)F)nc3)c(F)c2)CC(F)(F)C1 [Compound 2Hf, N-[(1R,5S)-3,3-difluoro-5-(3-methyl-4H-1,2,4-triazol-4-yl)cyclohexyl]-3-fluoro-4-[6-(2,2,2-trifluoroethoxy)pyridin-3-yl]benzenesulfonamide]",0.6
16,"Cc1nncn1[C@H]1C[C@@H](NS(=O)(=O)c2ccc(OCCCCF)c(F)c2)CC(F)(F)C1 [Compound 2Hi, N-[(1R,5S)-3,3-difluoro-5-(3-methyl-4H-1,2,4-triazol-4-yl)cyclohexyl]-3-fluoro-4-(4-fluorobutoxy)benzenesulfonamide]",6.8
17,"CCCCOc1ccc(S(=O)(=O)N[C@@H]2C[C@H](n3cnnc3C)CC(F)(F)C2)cc1F [Compound 2Hj, 4-butoxy-N-[(1R,5S)-3,3-difluoro-5-(3-methyl-4H-1,2,4-triazol-4-yl)cyclohexyl]-3-fluorobenzenesulfonamide]",3.6
18,"O=S(=O)(N[C@H]1CCC[C@@H](n2cnnc2)C1)c1ccc(-c2ccc(OC(F)(F)F)cc2)cc1F [Compound 2Ig, 3-fluoro-N-[(1S,3R)-3-(4H-1,2,4-triazol-4-yl)cyclohexyl]-4′-(trifluoromethoxy)biphenyl-4-sulfonamide]",16
19,"O=S(=O)(N[C@H]1CCC[C@@H](n2cnnc2)C1)c1ccc(-c2ccc(OCC(F)(F)F)nc2)cc1F [Compound 2Ih, 2-fluoro-N-[(1S,3R)-3-(4H-1,2,4-triazol-4-yl)cyclohexyl]-4-[6-(2,2,2-trifluoroethoxy)pyridin-3-yl]benzenesulfonamide]",4
20,"Cc1nncn1[C@@H]1CCC[C@H](NS(=O)(=O)c2ccc(-c3noc(C4CC4)n3)cc2F)C1 [Compound 2Ja, 4-(5-cyclopropyl-1,2,4-oxadiazol-3-yl)-2-fluoro-N-[(1S,3R)-3-(3-methyl-4H-1,2,4-triazol-4-yl)cyclohexyl]benzenesulfonamide]",22
21,"Cc1nncn1[C@@H]1CCC[C@H](NS(=O)(=O)c2ccc(-c3ccc(OC(F)(F)F)cc3)cc2F)C1 [Compound 2Jg, 3-fluoro-N-[(1S,3R)-3-(3-methyl-4H-1,2,4-triazol-4-yl)cyclohexyl]-4′-(trifluoromethoxy)biphenyl-4-sulfonamide]",10
22,"Cc1nncn1[C@@H]1CCC[C@H](NS(=O)(=O)c2ccc(-c3ccc(OCC(F)(F)F)nc3)cc2F)C1 [Compound 2Jh, 2-fluoro-N-[(1S,3R)-3-(3-methyl-4H-1,2,4-triazol-4-yl)cyclohexyl]-4-[6-(2,2,2-trifluoroethoxy)pyridin-3-yl]benzenesulfonamide]",3.4
23,"CCCCOc1ccc(S(=O)(=O)N[C@H]2CCC[C@@H](n3cnnc3C)C2)c(F)c1 [Compound 2Ji, 4-butoxy-2-fluoro-N-[(1S,3R)-3-(3-methyl-4H-1,2,4-triazol-4-yl)cyclohexyl]benzenesulfonamide]",4
